In PubChem BioAssay AID256 (DTP/NCI, 2004):
Several values for one entry are separate records, joined by “and”; a condition that tells them apart may be missing. Equal values may be shown once. Toxic doses and inconclusive results are not listed. How the source made its calls: active means survival T/C of 150% or more; inactive means T/C below 125% in these data.

Tested on: CD2F1 mice, L1210 leukemia ip, survival T/C
Assay: NCI In Vivo Anticancer Drug Screen. Data for tumor model L1210 Leukemia (intraperitoneal) in CD2F1 (CDF1) mice
Settings: higher = longer survival
Outline: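 Compound-dosed mice with transplantable tumor versus matched vehicle controls; endpoint ratio T/C reported.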

[1] = endpoint: mean survival time, dose: 100.0 mg/kg/injection, schedule: Q04DX003 (ip), vehicle: saline with Tween-80
[2] = endpoint: mean survival time, dose: 200.0 mg/kg/injection, schedule: Q04DX003 (ip), vehicle: saline with Tween-80
[3] = endpoint: mean survival time, dose: 400.0 mg/kg/injection, schedule: Q04DX003 (ip), vehicle: saline with Tween-80
[4] = endpoint: mean survival time, dose: 50.0 mg/kg/injection, schedule: Q01DX009 (ip), vehicle: saline with Tween-80
[5] = endpoint: mean survival time, dose: 100.0 mg/kg/injection, schedule: Q01DX009 (ip), vehicle: saline with Tween-80
[6] = endpoint: mean survival time, dose: 200.0 mg/kg/injection, schedule: Q01DX009 (ip), vehicle: saline with Tween-80
[7] = endpoint: mean survival time, dose: 100.0 mg/kg/injection, schedule: Q04DX003 (ip), vehicle: other
[8] = endpoint: mean survival time, dose: 200.0 mg/kg/injection, schedule: Q04DX003 (ip), vehicle: other
[9] = endpoint: mean survival time, dose: 400.0 mg/kg/injection, schedule: Q04DX003 (ip), vehicle: other
[10] = endpoint: mean survival time, dose: 100.0 mg/kg/injection, schedule: Q01DX001 (ip), vehicle: saline with Tween-80
[11] = endpoint: mean survival time, dose: 400.0 mg/kg/injection, schedule: Q01DX009 (ip), vehicle: saline with Tween-80
[12] = endpoint: mean survival time, dose: 25.0 mg/kg/injection, schedule: Q01DX009 (ip), vehicle: saline with Tween-80

Measured: T/C

O=C1C=C2C(=CCOC2O)O1 (stereo not drawn)
inactive: endpoint: mean survival time, dose: 0.25 mg/kg/injection, schedule: Q01DX009 (ip), vehicle: Klucel (hydroxypropylcellulose) (HPC) 108 % of control | endpoint: mean survival time, dose: 0.5 mg/kg/injection, schedule: Q01DX009 (ip), vehicle: Klucel (hydroxypropylcellulose) (HPC) 89 % of control and 106 % of control | endpoint: mean survival time, dose: 0.75 mg/kg/injection, schedule: Q01DX009 (ip), vehicle: Klucel (hydroxypropylcellulose) (HPC) 103 % of control | endpoint: mean survival time, dose: 1.0 mg/kg/injection, schedule: Q01DX009 (ip), vehicle: Klucel (hydroxypropylcellulose) (HPC) 101 % of control and 104 % of control | endpoint: mean survival time, dose: 1.5 mg/kg/injection, schedule: Q01DX009 (ip), vehicle: Klucel (hydroxypropylcellulose) (HPC) 104 % of control | endpoint: mean survival time, dose: 2.0 mg/kg/injection, schedule: Q01DX009 (ip), vehicle: Klucel (hydroxypropylcellulose) (HPC) 102 % of control and 103 % of control | endpoint: mean survival time, dose: 3.0 mg/kg/injection, schedule: Q01DX009 (ip), vehicle: Klucel (hydroxypropylcellulose) (HPC) 104 % of control | endpoint: mean survival time, dose: 4.0 mg/kg/injection, schedule: Q01DX009 (ip), vehicle: Klucel (hydroxypropylcellulose) (HPC) 95 % of control and 106 % of control | endpoint: mean survival time, dose: 6.0 mg/kg/injection, schedule: Q01DX009 (ip), vehicle: Klucel (hydroxypropylcellulose) (HPC) 96 % of control

Oc1ccc(C/C=C/c2ccccc2)cc1
inactive: [1] 102 % of control | [2] 100 % of control | [3] 102 % of control

CCCCCCCCCCCCS
inactive: endpoint: mean survival time, dose: 25.0 mg/kg/injection, schedule: Q04DX003 (ip), vehicle: saline with Tween-80 101 % of control | endpoint: mean survival time, dose: 50.0 mg/kg/injection, schedule: Q04DX003 (ip), vehicle: saline with Tween-80 97 % of control | [1] 100 % of control and 108 % of control | [2] 91 % of control | [3] 91 % of control

N#C/C(=C\c1cc(Cl)cc(Cl)c1O)c1ccc([N+](=O)[O-])cc1
inactive: [4] 89 % of control | [5] 95 % of control | [6] 96 % of control

CCSC(C(O)C(O)C(O)CO)n1cc(F)c(=O)[nH]c1=O (stereo not drawn)
inactive: endpoint: mean survival time, dose: 12.5 mg/kg/injection, schedule: Q01DX005 (ip), vehicle: water 104 % of control | endpoint: mean survival time, dose: 25.0 mg/kg/injection, schedule: Q01DX005 (ip), vehicle: water 105 % of control | endpoint: mean survival time, dose: 50.0 mg/kg/injection, schedule: Q01DX005 (ip), vehicle: water 110 % of control | endpoint: mean survival time, dose: 100.0 mg/kg/injection, schedule: Q01DX005 (ip), vehicle: water 105 % of control | endpoint: mean survival time, dose: 200.0 mg/kg/injection, schedule: Q01DX005 (ip), vehicle: water 104 % of control

CC(C)(C)OC(=O)NC(C(=O)O)C1=CCC=CC1 (stereo not drawn)
inactive: endpoint: mean survival time, dose: 25.0 mg/kg/injection, schedule: Q01DX009 (ip), vehicle: other 100 % of control | endpoint: mean survival time, dose: 50.0 mg/kg/injection, schedule: Q01DX009 (ip), vehicle: other 96 % of control | endpoint: mean survival time, dose: 50.0 mg/kg/injection, schedule: Q04DX002 (ip), vehicle: other 101 % of control | endpoint: mean survival time, dose: 50.0 mg/kg/injection, schedule: Q04DX003 (ip), vehicle: other 103 % of control | endpoint: mean survival time, dose: 100.0 mg/kg/injection, schedule: Q01DX001 (ip), vehicle: other 106 % of control | endpoint: mean survival time, dose: 100.0 mg/kg/injection, schedule: Q01DX009 (ip), vehicle: other 91 % of control | endpoint: mean survival time, dose: 100.0 mg/kg/injection, schedule: Q04DX002 (ip), vehicle: other 101 % of control | [7] 106 % of control | endpoint: mean survival time, dose: 200.0 mg/kg/injection, schedule: Q01DX001 (ip), vehicle: other 99 % of control | endpoint: mean survival time, dose: 200.0 mg/kg/injection, schedule: Q01DX009 (ip), vehicle: other 91 % of control | endpoint: mean survival time, dose: 200.0 mg/kg/injection, schedule: Q04DX002 (ip), vehicle: other 94 % of control | [8] 97 % of control | endpoint: mean survival time, dose: 400.0 mg/kg/injection, schedule: Q01DX001 (ip), vehicle: other 99 % of control | endpoint: mean survival time, dose: 400.0 mg/kg/injection, schedule: Q04DX002 (ip), vehicle: other 101 % of control | [9] 97 % of control | endpoint: mean survival time, dose: 600.0 mg/kg/injection, schedule: Q01DX001 (ip), vehicle: other 96 % of control

O=C(c1ccccc1)C(c1ccccc1)(c1ccccc1)c1ccccc1
inactive: [10] 93 % of control | endpoint: mean survival time, dose: 200.0 mg/kg/injection, schedule: Q01DX001 (ip), vehicle: saline with Tween-80 89 % of control | endpoint: mean survival time, dose: 400.0 mg/kg/injection, schedule: Q01DX001 (ip), vehicle: saline with Tween-80 89 % of control

N#Cc1ccc(OCc2nc(N)nc(N)c2-c2ccc(Cl)c(Cl)c2)cc1
inactive: [4] 90 % of control | [5] 102 % of control | [6] 110 % of control

NC(=O)c1csc(CSCCO)n1
inactive: endpoint: median survival time, dose: 41.75 mg/kg/injection, schedule: Q01DX005 (ip), vehicle: saline 103 % of control | endpoint: median survival time, dose: 83.5 mg/kg/injection, schedule: Q01DX005 (ip), vehicle: saline 104 % of control | endpoint: median survival time, dose: 167.0 mg/kg/injection, schedule: Q01DX005 (ip), vehicle: saline 102 % of control | endpoint: median survival time, dose: 334.0 mg/kg/injection, schedule: Q01DX005 (ip), vehicle: saline 98 % of control

CCCCOC(=S)SCCSC(=S)OCCCC
inactive: [5] 101 % of control | [6] 98 % of control

O=C1OC(=O)c2ccc([N+](=O)[O-])c3c([N+](=O)[O-])ccc1c23
inactive: [1] 92 % of control | [2] 95 % of control | [3] 90 % of control

CCOC(=O)c1ccc(OCC(=O)Nc2ccccc2)cc1
inactive: [5] 97 % of control | [6] 96 % of control | [11] 103 % of control

CC(=O)OC1CCC2(C)C(=CCC3C2CCC2(C)C3CC3OC4(CCC(C)CO4)C(C)C32)C1 (stereo not drawn)
inactive: [7] 95 % of control | [8] 94 % of control | [9] 94 % of control

CS(=O)CSCC(N)C(=O)O (stereo not drawn)
inactive: endpoint: mean survival time, dose: 12.5 mg/kg/injection, schedule: Q01DX009 (ip), vehicle: water 107 % of control | endpoint: mean survival time, dose: 25.0 mg/kg/injection, schedule: Q01DX009 (ip), vehicle: water 100 % of control | endpoint: mean survival time, dose: 50.0 mg/kg/injection, schedule: Q01DX009 (ip), vehicle: water 102 % of control | endpoint: mean survival time, dose: 100.0 mg/kg/injection, schedule: Q01DX009 (ip), vehicle: water 102 % of control | endpoint: mean survival time, dose: 200.0 mg/kg/injection, schedule: Q01DX009 (ip), vehicle: water 100 % of control

CN1CCCC1CCNc1nc(Nc2ccc(Cl)c(Cl)c2)nc2ccc(Cl)cc12 (stereo not drawn)
inactive: [12] 97 % of control | [10] 103 % of control

CCOC(=O)C(c1ccccc1)P(=O)(OCC)OCC (stereo not drawn)
inactive: endpoint: mean survival time, dose: 100.0 mg/kg/injection, schedule: Q04DX002 (ip), vehicle: saline with Tween-80 111 % of control | endpoint: mean survival time, dose: 200.0 mg/kg/injection, schedule: Q04DX002 (ip), vehicle: saline with Tween-80 100 % of control | endpoint: mean survival time, dose: 400.0 mg/kg/injection, schedule: Q04DX002 (ip), vehicle: saline with Tween-80 100 % of control

O/N=C/C=N/O.O/N=C/C=N/O.[Pd]
inactive: endpoint: mean survival time, dose: 6.25 mg/kg/injection, schedule: Q01DX009 (ip), vehicle: saline with Tween-80 100 % of control

O=C(O)CNC(=O)CCNC(=O)OCc1ccccc1
inactive: [5] 95 % of control | [6] 93 % of control | [11] 93 % of control

C[n+]1c(-c2cccc(OCCOCCOc3cccc(-c4c5cc(N)ccc5c5ccc(N)cc5[n+]4C)c3)c2)c2cc(N)ccc2c2ccc(N)cc21
inactive: endpoint: median survival time, dose: 1.0 mg/kg/injection, schedule: Q01DX009 (ip), vehicle: water 104 % of control | endpoint: median survival time, dose: 2.0 mg/kg/injection, schedule: Q01DX009 (ip), vehicle: saline with Tween-80 101 % of control | endpoint: median survival time, dose: 2.0 mg/kg/injection, schedule: Q01DX009 (ip), vehicle: water 114 % of control and 121 % of control | endpoint: median survival time, dose: 4.0 mg/kg/injection, schedule: Q01DX009 (ip), vehicle: saline with Tween-80 102 % of control | endpoint: median survival time, dose: 4.0 mg/kg/injection, schedule: Q01DX009 (ip), vehicle: water 114 % of control | endpoint: median survival time, dose: 8.0 mg/kg/injection, schedule: Q01DX009 (ip), vehicle: saline with Tween-80 104 % of control | endpoint: median survival time, dose: 8.0 mg/kg/injection, schedule: Q01DX009 (ip), vehicle: water 123 % of control | endpoint: median survival time, dose: 16.0 mg/kg/injection, schedule: Q01DX009 (ip), vehicle: saline with Tween-80 105 % of control | endpoint: median survival time, dose: 32.0 mg/kg/injection, schedule: Q01DX009 (ip), vehicle: saline with Tween-80 102 % of control

Cc1cccc(NC(=O)c2ccccc2)n1
inactive: endpoint: mean survival time, dose: 12.5 mg/kg/injection, schedule: Q01DX009 (ip), vehicle: saline with Tween-80 97 % of control | [12] 101 % of control | [4] 103 % of control
